Measurements from patent EP0799174B1, “BIOCIDAL ALCOHOLS, THEIR PRODUCTION AND THEIR USE” (SCHÜLKE & MAYR GMBH, priority 1994, dated 1996).

Assays:
[1] = system: Germ mixture of Staphylococcus aureus, Staphylococcus epidermis, Escherichia coli, Klebsiella pneumoniae, Enterobacter gergoviae, Pseudomonas aeruginosa …; assay: Preservative test: weekly loading of the sample with germ suspension; assay type: cell-based; settings: aromatic alcohol 0.5% in sulfosuccinate 12.0% / betaine 3.0% formulation
Text: Standard formulation: • sulfosuccinate 12.0% • betaine 3.0% • aromatic alcohol 0.5% • re-fatting agent • skin care additives • thickener • dem. water to 100 Test germs: Germ mixture of Staphylococcus aureus, Staphylococcus epidermis, Escherichia coli, Klebsiella pneumoniae, Enterobacter gergoviae, Pseudomonas aeruginosa, Pseudomonas fluorescens, Pseudomonas putida, Aspergillus niger, Penicillium funiculosum, Candida albicans; Total germ count 10^8-10^9/ml. Test method: weekly loading of the sample with germ suspension; smear onto CS and Sabouraud agar. See also K.-H. Diehl, P. Oltmanns, J. Ramsbotham, Seife, Öle, Fette, Wachse 118 (1992) 546.
Data expressed semi-qualitatively: • - no growth < 10^2 CFU/g (CFU = colony-forming units) • + slight growth approx. 10^3 CFU/g • ++ moderate growth approx. 10^4-10^5 CFU/g • +++ heavy growth > 10^5 CFU/g

Ps. aeruginosa = assay: Quantitative surface test according to DGHM, alcoholic surface disinfectant; assay type: cell-based; settings: additive (0.05% for single substances) in ethanol 25.0 % / 1-propanol 35.0 % formulation, germs deposited after approx. 20 minutes
Text: Standard formulation: • ethanol (MEK denatured) 25.0 % • 1-propanol 35.0 % • perfume 0.02 % • benzotriazole 0.001 % • Marlipal 013/70 0.1% (isotridecanpolyethyleneglycol-(7)-ether = C13 oxo alcohol + 7 mol ethylene oxide) • active ingredient additive x% • dem. water to 100 Test germ: Ps. aeruginosa Test method:
Quantitative surface test according to DGHM (Deutsche Gesellschaft für Hygiene and Microbiology = German Association for Hygiene and Microbiology). In order to exclude the effectiveness of the readily volatile alcohol components (ethanol, 1-propanol), the preparations were deposited onto the surfaces and the germs were deposited after approx. 20 minutes. Test surfaces: PVC and OP tiles Data as reduction factors (log stages)

[2] = Skin antiseptic a): suspension test according to DGHM; assay type: cell-based; settings: formulation with 1.0% aromatic alcohol in 1-propanol 30.0%, 2-propanol 45.0%; concentration and time
[3] = system: Pseudomonas aeruginosa ATCC 15442; assay: Skin antiseptic b): quantitative suspension test according to DGHM; assay type: cell-based; settings: 1.0% 8, formulation 1-propanol 15.0%, 2-propanol 30.0%
Text: (§1) • 1-propanol 15.0% • 2-propanol 30.0% • aromatic alcohol 1.0% • dem. water to 100 [table]

[4] = system: Staphylococcus aureus ATCC 6538; assay: as above; assay type: cell-based; settings: 1.0% 8, formulation 1-propanol 15.0%, 2-propanol 30.0%
Text: as §1

[5] = system: Candida albicans ATCC 10231; assay: as above; assay type: cell-based; settings: 1.0% 8, formulation 1-propanol 15.0%, 2-propanol 30.0%
Text: as §1

resident skin flora = assay: Skin antiseptic a): action against the resident skin flora; assay type: in vivo; settings: formulation with 1.0% aromatic alcohol in 1-propanol 30.0%, 2-propanol 45.0%; concentration and time

OCCCc1ccccc1 [Alcohol 1, 3-phenyl propanol, reference compound]
growth, 1st week ([1]; 1st week): + (slight growth approx. 10^3 CFU/g) | growth, 2nd week ([1]; 2nd week): + (slight growth approx. 10^3 CFU/g) | growth, 3rd week ([1]; 3rd week): - (no growth < 10^2 CFU/g) | growth, 4th week ([1]; 4th week): - (no growth < 10^2 CFU/g) | growth, 5th week ([1]; 5th week): - (no growth < 10^2 CFU/g) | reduction factors (log stages) (Ps. aeruginosa; PVC, 30'): 0 log stages | reduction factors (log stages) (Ps. aeruginosa; PVC, 60'): 0 log stages | reduction factors (log stages) (Ps. aeruginosa; PVC, 240'): 0 log stages | reduction factors (log stages) (Ps. aeruginosa; Tiles, 30'): 0 log stages | reduction factors (log stages) (Ps. aeruginosa; Tiles, 60'): 0 log stages | reduction factors (log stages) (Ps. aeruginosa; Tiles, 240'): 0 log stages

CCCCCC(=Cc1ccccc1)CO [Alcohol 8, α-amyl cinnamyl alcohol]
values in the suspension test according to DGHM [2]: 50%, 30 seconds | reduction factors (log stages) ([3]; column 25, contact time 1'): 0 log stages | reduction factors (log stages) ([3]; column 25, contact time 2'): 0 log stages | reduction factors (log stages) ([3]; column 25, contact time 5'): 0 log stages | reduction factors (log stages) ([3]; column 25, contact time 30"): 0 log stages | reduction factors (log stages) ([3]; column 50, contact time 1'): >5.8 log stages | reduction factors (log stages) ([3]; column 50, contact time 2'): >5.7 log stages | reduction factors (log stages) ([3]; column 50, contact time 5'): >5.7 log stages | reduction factors (log stages) ([3]; column 50, contact time 30"): >5.6 log stages | reduction factors (log stages) ([3]; column 75, contact time 1'): >5.8 log stages | reduction factors (log stages) ([3]; column 75, contact time 2'): >5.7 log stages | reduction factors (log stages) ([3]; column 75, contact time 5'): >5.7 log stages | reduction factors (log stages) ([3]; column 75, contact time 30"): >5.6 log stages | reduction factors (log stages) ([4]; column 25, contact time 1'): 3.6 log stages | reduction factors (log stages) ([4]; column 25, contact time 2'): 4.7 log stages | reduction factors (log stages) ([4]; column 25, contact time 5'): >5.8 log stages | reduction factors (log stages) ([4]; column 25, contact time 30"): 2.8 log stages | reduction factors (log stages) ([4]; column 50, contact time 1'): >5.5 log stages | reduction factors (log stages) ([4]; column 50, contact time 2'): >5.9 log stages | reduction factors (log stages) ([4]; column 50, contact time 5'): >5.8 log stages | reduction factors (log stages) ([4]; column 50, contact time 30"): >5.6 log stages | reduction factors (log stages) ([4]; column 75, contact time 1'): >5.5 log stages | reduction factors (log stages) ([4]; column 75, contact time 2'): >5.9 log stages | reduction factors (log stages) ([4]; column 75, contact time 5'): >5.8 log stages | reduction factors (log stages) ([4]; column 75, contact time 30"): >5.6 log stages | reduction factors (log stages) ([5]; column 25, contact time 1'): 0.6 log stages | reduction factors (log stages) ([5]; column 25, contact time 2'): 1.1 log stages | reduction factors (log stages) ([5]; column 25, contact time 5'): 1.7 log stages | reduction factors (log stages) ([5]; column 25, contact time 30"): 0.5 log stages | reduction factors (log stages) ([5]; column 50, contact time 1'): 3.5 log stages | reduction factors (log stages) ([5]; column 50, contact time 2'): >4.9 log stages | reduction factors (log stages) ([5]; column 50, contact time 5'): >5.1 log stages | reduction factors (log stages) ([5]; column 50, contact time 30"): 2.7 log stages | reduction factors (log stages) ([5]; column 75, contact time 1'): >4.6 log stages | reduction factors (log stages) ([5]; column 75, contact time 2'): >4.9 log stages | reduction factors (log stages) ([5]; column 75, contact time 5'): >5.1 log stages | reduction factors (log stages) ([5]; column 75, contact time 30"): >4.6 log stages | action against the resident skin flora (resident skin flora): 100%, 15 seconds
